Tested on: not listed separately
Test: Sheep test: feed intake
Assay type: in vivo
Conditions: 1 week after 167 mg/kg
Procedure: (§1) In this trial the effect of defaunation by compounds 27, 30 and 37 (see Table 1) after 1 and 3 weeks were examined using penned sheep.
(§2) The compounds were each administered to two sheep as a single dose at 167 mg/kg body weight. Compositions containing each compound were prepared according to the method of Example 1. Sheep were penned and fed 1000 g/day of a chaffed oaten hay and Lucerne mixture (90/10). Protozoal and bacterial viabilities were monitored along with the feed intake of the sheep according to the methods taught in Examples 2, 3 and 7.

| SMILES | Feed Intake |
| --- | --- |
| Cc1ccc(Nc2nc(Cl)nc(Cl)n2)c(C)c1 [Compound 30, 2,4 dichloro-6-(2,4-dimethylanilino)-s-triazine] | 625 g/day |

Same assay, conditions: 3 weeks after 167 mg/kg

| SMILES | Feed Intake |
| --- | --- |
| Cc1ccc(Nc2nc(Cl)nc(Cl)n2)c(C)c1 [Compound 30, 2,4 dichloro-6-(2,4-dimethylanilino)-s-triazine] | 740 g/day |

Same assay, conditions: pre-dose (baseline)

| SMILES | Feed Intake |
| --- | --- |
| Cc1ccc(Nc2nc(Cl)nc(Cl)n2)c(C)c1 [Compound 30, 2,4 dichloro-6-(2,4-dimethylanilino)-s-triazine] | 887 g/day |

Tested on: mice
Test: Mouse safety assessment
Assay type: in vivo
Conditions: oral gavage, 830, 415 and 217 mg/kg, observed for 2 days
Procedure: Compounds of Table 1 chosen for testing in sheep were first tested in mice for signs of toxicity. Because sheep are approximately 5 times more sensitive than mice to compounds dosed orally, the dose rates applied to mice were 5 times greater than the target dose rate of 500 ppm. in rumen liquor (83 mg/kg live weight) used for sheep. Each compound was screened at three different dose levels, high (830 mg/kg), medium (415 mg/kg) and low (217 mg/kg).
252 mg of compound was used for dilution into a high medium and low dose rate. 252 mg of compound was mixed with 3 ml of G1284 solution (4% w/v ethoxylated castor oil and 0.05% w/v simethicone), to form the high dose composition. The medium dose composition was formed by diluting 1.5 ml of the high dose with 1.5 ml of G1284 solution. The low dose composition was formed by diluting 1.5 ml of the medium dose with 1.5 ml of G1284 solution. Before the high dose could be diluted it was first manually ball milled in an effort to produce a fine suspension of the compound.
All mice were weighed before dosing to calculate the appropriate dose rate. The calculation for dose rate was: [formula]
Each mouse was dosed using the Gavage method. With this method the mouse is dosed orally by way of an angled hypodermic needle (18 g) with a smooth spherical end. It is gently placed down the esophagus. All care must be taken not to force the needle and injure the esophagus or dose into the lungs.
Observations were made at 10, 30, 60 and 120 minutes after dosing, then every 1 or 2 hours for the first 6 hours.
Mice were usually observed for 2 days.
Typically, few compounds fell within the poor classification. The majority of compounds tested were either in the fair or good classification.

| SMILES | Mouse Safety Assessment |
| --- | --- |
| Clc1nc(Cl)nc(Nc2cccc(I)c2)n1 [Compound 22] | Fair (>2 mice sick) |
| N#Cc1cccc(Nc2nc(Cl)nc(Cl)n2)c1 [Compound 19] | Fair (>2 mice sick) |
| COc1ccc(Nc2nc(Cl)nc(Cl)n2)cc1OC [Compound 17] | Good |

Tested on: not listed separately
Test: Wool growth in defaunated sheep
Assay type: in vivo
Conditions: sheep, clean wool growth defaunated vs refaunated, 167 mg/kg
Procedure: (§3) Seven sheep each were defaunated using a dose rate of 167 mg/kg. Compounds were administered by first mixing with 20 ml of ethanol and then with 200 ml of centrifuged rumen liquor. This solution was then administered via a flexible stomach tube directly into the rumen. The sheep were fed with a ration of 90% oaten chaff and 10% Lucerne chaff at a rate of 1000 g per day. The sheep were maintained in a defaunated state by their isolation from faunated sheep to prevent the possibility of refaunation. The sheep were allowed to adjust for 3 weeks after administering the compound before any wool growth measurements were taken.
(§4) At the start of the wool growth measurement period, a 10 cm square area of wool was removed from both sides of the sheep. After four weeks the same area was reclipped and the wool retained for scouring at the end of the trial.
(§5) The sheep then had protozoa introduced back into their rumen and were allowed to adjust for three weeks. Similarly, during the second four week period, the wool was clipped from the same patch area. The wool harvested during the two four week trial periods was then scoured of wool wax and extraneous material and weighed.

| SMILES | Response To Defaun |
| --- | --- |
| Cc1ccc(Nc2nc(Cl)nc(Cl)n2)c(C)c1 [Compound 30, 2,4 dichloro-6-(2,4-dimethylanilino)-s-triazine] | 14.6 |

Same assay, conditions: sheep, defaunated period, 167 mg/kg, 4 weeks, per midside patch

| SMILES | Clean Wool Growth |
| --- | --- |
| Cc1ccc(Nc2nc(Cl)nc(Cl)n2)c(C)c1 [Compound 30, 2,4 dichloro-6-(2,4-dimethylanilino)-s-triazine] | 2.830 g |

Tested on: protozoa
Test: Sheep test: protozoal numbers
Assay type: in vivo
Conditions: 1 week after 167 mg/kg
Procedure: as §1, §2

| SMILES | Protozoal Nos. |
| --- | --- |
| Cc1ccc(Nc2nc(Cl)nc(Cl)n2)c(C)c1 [Compound 30, 2,4 dichloro-6-(2,4-dimethylanilino)-s-triazine] | 0 per mL × 10^3 |

Same assay, conditions: 3 weeks after 167 mg/kg

| SMILES | Protozoal Nos. |
| --- | --- |
| Cc1ccc(Nc2nc(Cl)nc(Cl)n2)c(C)c1 [Compound 30, 2,4 dichloro-6-(2,4-dimethylanilino)-s-triazine] | 0 per mL × 10^3 |

Same assay, conditions: pre-dose (baseline)

| SMILES | Protozoal Nos. |
| --- | --- |
| Cc1ccc(Nc2nc(Cl)nc(Cl)n2)c(C)c1 [Compound 30, 2,4 dichloro-6-(2,4-dimethylanilino)-s-triazine] | 346 per mL × 10^3 |

Tested on: rumen ciliate protozoa
Test: In vitro activity of defaunation compounds against rumen ciliate protozoa
Assay type: cell-based
Conditions: 39° C., anaerobic, 3 hours, tested at 50, 150, 250 and 500 ppm
Procedure: Compounds of Table 1 were tested for their toxicity against rumen ciliate protozoa by firstly isolating protozoa from rumen liquor collected from faunated animals. The rumen liquor was then centrifuged at 500 g for five minutes and the supernatant discarded. The protozoal-rich sediment was then reconstituted in McDougal's artificial saliva. Residual bacteria were suppressed by using a combination of two antibiotics at low concentration. Nitrogen and energy substrate was optimized for the protozoal preparation. At all times the protozoal preparation was maintained at 39° C. and kept anaerobic.
Sixty milligrams of each the compounds of Table 1 were dissolved in 1.2 ml of dimethyl sulphoxide and dispersed in triplicate to achieve a final concentration of 50, 150, 250 and 500 ppm. Ten milliliters of protozoal preparation was then added to each tube. After every second compound, control tubes were included which contained everything except for compound. The tubes, to which a 5 ml glass syringe was attached, were then incubated for 3 hours in a water bath at 39° C. The production of gas causes the syringe plunger to be displaced.
At the end of the incubation period, the volume of gas produced was recorded and the viability of the protozoa assessed visually using a microscope. The toxicity of the compounds to protozoa was assessed from both the reduction in gas produced relative to the control and by direct observation of the protozoa for movement of cilia.

| SMILES | Conc Required to Kill all Protozoa |
| --- | --- |
| Cc1ccc(Nc2nc(Cl)nc(Cl)n2)c(C)c1 [Compound 30, 2,4 dichloro-6-(2,4-dimethylanilino)-s-triazine] | 150 ppm |
| Clc1nc(Cl)nc(Nc2cccc(I)c2)n1 [Compound 22] | 150 ppm |
| N#Cc1cccc(Nc2nc(Cl)nc(Cl)n2)c1 [Compound 19] | 250 ppm |
| COc1ccc(Nc2nc(Cl)nc(Cl)n2)cc1OC [Compound 17] | 250 ppm |

Tested on: rumen bacteria
Test: Sheep test: bacterial gas production
Assay type: in vivo
Conditions: 1 week after 167 mg/kg
Procedure: as §1, §2

| SMILES | Bacterial gas production |
| --- | --- |
| Cc1ccc(Nc2nc(Cl)nc(Cl)n2)c(C)c1 [Compound 30, 2,4 dichloro-6-(2,4-dimethylanilino)-s-triazine] | 1.9 M1 per 5 hr |

Same assay, conditions: 3 weeks after 167 mg/kg

| SMILES | Bacterial gas production |
| --- | --- |
| Cc1ccc(Nc2nc(Cl)nc(Cl)n2)c(C)c1 [Compound 30, 2,4 dichloro-6-(2,4-dimethylanilino)-s-triazine] | 4.6 M1 per 5 hr |

Same assay, conditions: pre-dose (baseline)

| SMILES | Bacterial gas production |
| --- | --- |
| Cc1ccc(Nc2nc(Cl)nc(Cl)n2)c(C)c1 [Compound 30, 2,4 dichloro-6-(2,4-dimethylanilino)-s-triazine] | 4.4 M1 per 5 hr |

Tested on: rumen bacteria
Test: In vitro bacterial gas inhibition
Assay type: cell-based
Conditions: at the concentration known to kill protozoa
Procedure: Compounds of Table 1 were also tested for toxicity bacteria. This involved removing protozoa from rumen liquor by centrifugation at 2,000 g for 5 minutes and collecting the bacterial rich supernatant. Nitrogen and energy substrate was added to the bacterial preparation which was then dispensed in triplicate 10 ml volumes over the same range of compound concentrations (50, 150, 250 and 500 ppm.) referred to in Example 2. Control tubes were placed after every second compound to enable the inhibition of gas resulting from the compound to be assessed. […] It can be seen that these compounds are selective in their mode of action, in that they are more toxic to protozoa than bacteria.

| SMILES | Bact. Gas Inhibition at the conc. required to kill protozoa |
| --- | --- |
| Cc1ccc(Nc2nc(Cl)nc(Cl)n2)c(C)c1 [Compound 30, 2,4 dichloro-6-(2,4-dimethylanilino)-s-triazine] | 33 |
| Clc1nc(Cl)nc(Nc2cccc(I)c2)n1 [Compound 22] | 75 |
| N#Cc1cccc(Nc2nc(Cl)nc(Cl)n2)c1 [Compound 19] | 50 |
| COc1ccc(Nc2nc(Cl)nc(Cl)n2)cc1OC [Compound 17] | 43 |

Tested on: protozoa
Test: Wool growth trial: protozoal number
Assay type: in vivo
Conditions: sheep, defaunated period, 167 mg/kg
Procedure: as §3, §4, §5

| SMILES | Prot. Number |
| --- | --- |
| Cc1ccc(Nc2nc(Cl)nc(Cl)n2)c(C)c1 [Compound 30, 2,4 dichloro-6-(2,4-dimethylanilino)-s-triazine] | 0 per mL × 10^3 |

Tested on: rumen ciliate protozoa
Test: Protozoal reduction in sheep
Assay type: in vivo
Parameters: concentration or dose not given beside the values
Conditions: one week after dosing, relative to predosing numbers
Procedure: Defaunation compositions were prepared according to the method of Example 1.
Prior to dosing of the compound, a sample of rumen liquor (200 ml) was withdrawn to establish basal numbers of protozoa.
The sample was collected using a stomach tube, inserted into the rumen via a rumen cannula (fistulated animals) or per esophagus (intact animals). After straining the sample was well mixed using a magnetic stirrer and a 0.5 ml sample was withdrawn and added to 49.5 ml of a crystal violet stain. Protozoa were counted using a microscope and a Hawksley counting chamber.
One week after administering the compound, another rumen liquor sample was collected (as described above) and examined for the presence of protozoa. Where rumen ciliate protozoa were undetectable, a reduction or inhibition value of 100% was recorded. In general, most compounds expressed a strong inhibitory effect on protozoal populations.

| SMILES | Protozoal Reduction |
| --- | --- |
| Cc1ccc(Nc2nc(Cl)nc(Cl)n2)c(C)c1 [Compound 30, 2,4 dichloro-6-(2,4-dimethylanilino)-s-triazine] | 100% |
| Clc1nc(Cl)nc(Nc2cccc(I)c2)n1 [Compound 22] | 100% |
| N#Cc1cccc(Nc2nc(Cl)nc(Cl)n2)c1 [Compound 19] | 100% |
| COc1ccc(Nc2nc(Cl)nc(Cl)n2)cc1OC [Compound 17] | 98% |

Tested on: rumen bacteria
Test: Bacterial viability in sheep after administering defaunation compounds
Assay type: in vivo
Conditions: gas production one week after dosing vs pre-dosing
Procedure: In order to establish what effect the compounds had on the viability of rumen bacteria, a sample of rumen liquor was collected prior to dosing of the compound. The sample was withdrawn under vacuum using a pre-warmed tube inserted into the rumen through a rumen cannula. The sample was collected in a pre-warmed (39° C.) flask, gassed with carbon dioxide and covered. Two-pre-warmed 30 ml centrifuge tubes were then filled with well mixed rumen liquor and centrifuged at 2000 rpm for 5 minutes. Half the volume of each tube was then poured into another pre-warmed tube without disturbing the sediment. Three lots of 10 ml of this rumen liquor were then pipetted into 15 ml tubes which contained 10 μL of urea solution (40% w/v and 300 μL of glucose solution (50% w/v). The urea and glucose acted as substrate for the bacteria. The tubes were then gassed with carbon dioxide, stoppered and placed in a water bath at 39° C. After 10 minutes a 5 ml glass syringe was secured into the stoppers (through which a hypodermic needle had been inserted) and the gas collected for five hours and recorded.
This bacterial viability measure was then repeated one week after dosing with each of the compounds referred to in Table 1. Defaunation compositions were prepared according to the method of Example 1. The amount of gas produced was then compared with the pre-dosing level. The criterion for classifying post-dosing bacterial viability is shown below:
Poor--reduction in post-dosing gas production relative to pre-dosing levels.
OK--post-dosing gas production the same as pre-dosing levels.
Good--increase in post-dosing gas production relative to pre-dosing levels.

| SMILES | Bacterial Viability |
| --- | --- |
| Cc1ccc(Nc2nc(Cl)nc(Cl)n2)c(C)c1 [Compound 30, 2,4 dichloro-6-(2,4-dimethylanilino)-s-triazine] | Good |
| Clc1nc(Cl)nc(Nc2cccc(I)c2)n1 [Compound 22] | Okay |
| N#Cc1cccc(Nc2nc(Cl)nc(Cl)n2)c1 [Compound 19] | Poor |
| COc1ccc(Nc2nc(Cl)nc(Cl)n2)cc1OC [Compound 17] | Okay |

Tested on: not listed separately
Test: Effect of defaunation compounds on feed intake of sheep
Assay type: in vivo
Conditions: after dosing vs pre-dosing intake
Procedure: Sheep were allowed a minimum of three weeks to adapt to their ration of 900 g of oaten chaff and 100 g of Lucerne chaff. The pre-dosing level of intake for each animal was established from the mean of five days intake immediately prior to dosing. Any effects of administering the compound on feed intake was then determined by measuring the level of feed intake after dosing.
The criteria of classifying the effect on food intake are shown below.
Poor--greater than 50% reduction in feed intake during the first week after dosing.
Fair--greater than 50% reduction in feed intake on the day following dosing but less then 50% reduction one week after dosing.
OK--transient drop in feed intake which is less than 50% on the day after dosing.
Good--No reduction in feed intake following dosing.

| SMILES | Feed Intake |
| --- | --- |
| Cc1ccc(Nc2nc(Cl)nc(Cl)n2)c(C)c1 [Compound 30, 2,4 dichloro-6-(2,4-dimethylanilino)-s-triazine] | Okay (transient drop, less than 50% at day 2) |
| Clc1nc(Cl)nc(Nc2cccc(I)c2)n1 [Compound 22] | Good |
| N#Cc1cccc(Nc2nc(Cl)nc(Cl)n2)c1 [Compound 19] | Good |
| COc1ccc(Nc2nc(Cl)nc(Cl)n2)cc1OC [Compound 17] | Fair |

Reference: US5561131A, “Defaunation method” (Mallinckrodt Veterinary, Inc., priority 1991, dated 1996)
